“Also recorded” adds a separate entry of the source. Read-outs that look alike come from different tables or passages of the source.
Tests used:
RSV [1] = test system: RSV; set-up: method as in PMID 19707346; conditions: premature infants; monthly injection; cited from earlier work
[2] = test system: RSV-B VR-955 EDP-938 resistant populations; assay: Susceptibility of EDP-938 resistant RSV-B VR-955 populations; format: cell-based, respiratory syncytial virus
RSV [3] = assay: Single-round synchronized infection time-of-addition, RT-qPCR endpoint; format: cell-based, respiratory syncytial virus; conditions: HEp-2; MOI 3; cold-synchronized; 2x or 20x EC50; added 0-8 hpi; RT-qPCR at 24 hpi
Method: In order to help determine which step of the viral life cycle EDP-938 blocks multiple in vitro time-of-addition studies were performed. In the first study, EDP-938 was administered to cells infected with RSV-A Long at a MOI of 0.1 at 2 hours pre-infection (-2) or 2, 6, or 24 hours post-infection (hpi), and viral CPE evaluated 5 days later. […] A second time-of-addition study explored the ability of EDP-938 to protect not just a population experiencing a spreading infection, but individual cells already infected with RSV. Using a MOI of 3, which infects approximately 95% of all cells, virus was cold-adsorbed to the cells for 1 hour to synchronize infection before transfer to 37°C to induce fusion (marking the 0 hpi time point). Compound was added at times indicated and a 24 hpi RT-qPCR endpoint was employed to constrain viral replication cycle to a single complete cycle.
For single round infection synchronized infection 25,000 HEp-2 cpw seeded 1-day pre-infection. Plates brought to 4°C, viral infection at 3 MOI calculated for 30,000 cpw incubated at 4°C 1hr. Compound added to 0h plate and plates moved to 37°C. Compound added at 2h, 4h, 6h, and 8h post-incubation (when plates moved to 37°C) to appropriate plates. 24 hpi viral copies measured with RT-qPCR as described above.

[4] = test system: GS-5806- and AZ-27-resistant RSV; assay: Activity against GS-5806- and AZ-27-selected resistant viruses; format: cell-based, respiratory syncytial virus; conditions: own resistant virus
[5] = test system: recombinant RSV A2-line19F, N protein mutants
[6] = test system: recombinant RSV A2-line19F, N protein mutants; assay: microbe, parasite or virus in culture; conditions: human respiratory syncytial virus
RSV-A Long [7] = assay: CPE assay (ATPlite), RSV-A Long in HEp-2 cells; format: cell-based; conditions: human respiratory syncytial virus
RSV-A Long [8] = assay: RT-qPCR viral load assay, RSV-A Long in HEp-2 cells; format: cell-based; conditions: human respiratory syncytial virus
RSV A2 = assay: RSV-infected African Green monkey model, viral load; format: in vivo, African Green monkeys (Chlorocebus); conditions: 100 mg/kg BID oral gavage; BAL
Method: African Green monkeys (AGMs) are permissive for human RSV infection and support a relatively higher level of viral replication compared to cotton rats and BALB/c mice. It has been previously validated as a non-human primate model for assessing in vivo efficacy of potential RSV vaccines and antiviral drugs. To evaluate the activity of EDP-938 in the AGM model, 4 animals each were treated with 100 mg/kg BID with EDP-938, RSV-604, or vehicle control via oral gavage starting 24 hours prior to RSV challenge and continuing for an additional 5 days. Samples were collected through bronchoalveolar lavage (BAL) and nasopharyngeal (NP) swab at various time points to determine viral load. […] Viral load in the NP swab samples was also determined.
A study of EDP-938 and RSV-604 in the African Green monkey (AGM) animal model was performed by BIOQUAL, Inc (Rockville, Maryland). Methods were similar to those run in a study by Ispas et al.. Six (6) male and 6 female AGMs (Chlorocebus) of 4–5 kg were purchased from PrimGen (Hines, Illinois). Each animal was challenged with 2 x 10^5 PFU of RSV A2 viral inoculum (Virapur, San Diego, CA). Four animals (2 per sex) in each group were treated with EDP-938, RSV-604, or vehicle control (0.5% w/v methylcellulose). The animals were dosed via oral gavage twice daily (every 12 hours), starting 24 hours prior to RSV challenge, and then continuing for an additional 5 days (6 total days of dose administration). Bronchoalveolar lavage (BAL) samples and nasopharyngeal (NP) swabs were collected for viral load determination.

[9] = Plasma drug exposure in African Green monkey study; format: in vivo, African Green monkeys (Chlorocebus); conditions: both sexes, in vivo, 100 mg/kg BID oral, read-out: mean plasma Ctrough
Source text: The African green monkey model was selected for EDP-938 in vivo studies for its higher level of viral replication versus cotton rats and BALB/c mice. […] In this previous trial, patients who achieved RSV-604 levels in excess of the EC90 experienced a 2.31 log reduction in viral load. […] The lack of antiviral activity observed with RSV-604 could be a function of relatively poor potency compared to EDP-938 (Fig 1) and/or insufficient tissue exposure. While in this study the animals were not sacrificed and thus the drug level in the lung could not be determined, plasma samples were taken at 12h after the last dose (Ctrough) to confirm drug exposure. […] It is reasonable to project that given the same dose or exposure EDP-938 should perform better than RSV-604 in RSV infected patients as well.
A study of EDP-938 and RSV-604 in the African Green monkey (AGM) animal model was performed by BIOQUAL, Inc (Rockville, Maryland). Methods were similar to those run in a study by Ispas et al.. Six (6) male and 6 female AGMs (Chlorocebus) of 4–5 kg were purchased from PrimGen (Hines, Illinois). Each animal was challenged with 2 x 10^5 PFU of RSV A2 viral inoculum (Virapur, San Diego, CA). Four animals (2 per sex) in each group were treated with EDP-938, RSV-604, or vehicle control (0.5% w/v methylcellulose). […]

RSV [10] = test system: RSV; set-up: method as in PMID 31915807; conditions: patients who achieved RSV-604 levels in excess of the EC90; cited from earlier work
RSV replicon = test system: RSV replicon; set-up: method as in PMID 25451060; conditions: compared to AZ-27; cited from earlier work
[11] = HEp-2, recombinant RSV Wild-type (WT), HEp2

Molecule | EC50 Fold Change vs. WT ([2]; RSV-B VR-955 Wild-Type) [fold] | activity against the virus selected for resistance with the same compound [4] | EC50 Fold Change vs. WT ([5]; recombinant RSV N K107N) [fold] | EC50 Fold Change vs. WT ([5]; recombinant RSV N K136R) [fold] | EC50 Fold Change vs. WT ([5]; recombinant RSV N L139I) [fold] | EC50 Fold Change vs. WT ([5]; recombinant RSV N M109I) [fold] | EC50 Fold Change vs. WT ([5]; recombinant RSV N M109K) [fold] | EC50 Fold Change vs. WT ([5]; recombinant RSV N M109T) [fold] | EC50 Fold Change vs. WT ([5]; recombinant RSV N N105D) [fold] | EC50 Fold Change vs. WT ([5]; recombinant RSV N S134T) [fold] | EC50 Fold Change vs. WT ([5]; recombinant RSV N V90A) [fold] | EC50 Fold Change vs. WT ([5]; recombinant RSV Wild-type (WT)) [fold] | EC50 ([6]; HEp-2, recombinant RSV N K107N) [nM] | EC50 ([6]; HEp-2, recombinant RSV N K136R) [nM] | EC50 ([6]; HEp-2, recombinant RSV N L139I) [nM] | EC50 ([6]; HEp-2, recombinant RSV N M109I) [nM] | EC50 ([6]; HEp-2, recombinant RSV N M109K) [nM] | EC50 ([6]; HEp-2, recombinant RSV N M109T) [nM] | EC50 ([6]; HEp-2, recombinant RSV N N105D) [nM] | EC50 ([6]; HEp-2, recombinant RSV N S134T) [nM] | other results
palivizumab: monthly injectable monoclonal antibody against RSV |  |  |  |  |  |  |  |  |  |  |  |  |  |  |  |  |  |  |  |  | relative reduction in RSV-associated hospitalizations (RSV [1]): approximately 55%
Cc1cn2nc([C@@H]3CCCCN3C(=O)c3cc(Cl)ccc3NS(C)(=O)=O)cc2nc1N1CC[C@H](N)C1 [GS-5806] | 1 | lost all ability to inhibit their resistant viruses | 0.7 | 4.2 | 1.3 | 0.8 | 0.5 | 1.6 | 1.1 | 1.8 | 1.0 | 1.0 | 0.09 ± 0.07 | 0.54 ± 0.34 | 0.17 ± 0.15 | 0.11 ± 0.09 | 0.06 ± 0.05 | 0.21 | 0.14 ± 0.2 | 0.23 ± 0.3 | EC50 Fold Change vs. WT ([2]; RSV-B VR-955 Population 1, N: M109K, L139Q (dual WT/mutant population)): 0.2 fold; EC50 Fold Change vs. WT ([2]; RSV-B VR-955 Population 2, N: M109T): 0.2 fold; inhibition of viral RNA production by time of addition (RSV [3]): reduced when added at 0 hpi and completely lost when added at 8 hpi; EC50 ([6]; HEp-2, recombinant RSV N V90A): 0.13 nM; EC50 [6, 11]: 0.13 ± 0.12 nM
O=C(NC1CC1)c1cc2c(s1)-c1ccccc1N(C(=O)c1ccc(NC(=O)c3cccnc3N3CCC4(CC3)COC4)cc1)CC2 [AZ-27] |  | lost all ability to inhibit their resistant viruses |  |  |  |  |  |  |  |  |  |  |  |  |  |  |  |  |  |  | 
O=C(Nc1ccccc1F)N[C@H]1N=C(c2ccccc2)c2ccccc2NC1=O [RSV-604] | 1 |  | 1.6 | 3.7 | 8.3 | 0.4 | 2.5 | 1.6 | 2.3 | 2.1 | 1.2 | 1.0 | 1810 | 4300 | 9550 | 514 ± 159 | 2870 | 1860 | 2700 | 2480 | EC50 (RSV-A Long [7]; HEp-2, 120 h): 1.43 µM; EC50 (RSV-A Long [7]; HEp-2, read-out: EC50, RSV-A Long-induced CPE): ~1.4 µM; EC50 (RSV-A Long [8]; HEp-2, 120 h): 1.98 µM; EC50 (RSV-A Long [8]; HEp-2, read-out: EC50, inhibition of viral replication): ~2 µM; effect on RSV viral load vs vehicle control (RSV A2): did not result in significant RSV viral load reduction; also recorded: unable to reduce viral load in a statistically significant manner; concentration at 12 h after the last dose [9]: 637 nM; reduction in viral load (RSV [10]): 2.31 log; effect in a replicon assay (RSV replicon): minimal effect; EC50 ([6]; HEp-2, recombinant RSV N V90A): 1420 nM; EC50 [6, 11]: 1150 nM

Source: article PMC7993833, “EDP-938, a novel nucleoprotein inhibitor of respiratory syncytial virus, demonstrates potent antiviral activities in vitro and in a non-human primate model” (PLoS Pathogens, 2021)
